Reference: article PMC6891541, “α-Glucosidase and Pancreatic Lipase Inhibitory Activities of Diterpenes from Indian Mango Ginger (Curcuma amada Roxb.) and Its Derivatives” (Molecules, 2019)

Key:
human 5-lipoxygenase = details: cited from earlier work
α-glucosidase = test system: α-glucosidase; design: method as in PMID 18179176; details: cited from earlier work
[1] = test system: cancer cell lines such as MCF-7, KB and A549; design: method as in PMID 21629182; details: cited from earlier work
Hep G2 cells = test system: Hep G2 cells; design: method as in PMID 30034597; details: cited from earlier work
COX2 = test system: COX2; design: method as in doi:10.1016/j.foodchem.2010.06.064; details: cited from earlier work
[2] = test system: rat intestinal α-glucosidase; experiment: α-glucosidase inhibition, rat intestinal acetone powder, pNPG hydrolysis; type: biochemical; details: for α-glucosidase inhibitory activity (in words): rat intestinal α-glucosidase; for IC50: pNPG substrate, read-out: IC α-Glucosidase
Procedure: The α-glucosidase activity was calculated by measuring the amount of p-nitrophenol hydrolyzed from pNPG by α-glucosidase. Tested enzyme was prepared using α-glucosidase included in commercial rat intestinal acetone powder (Sigma-Aldrich). […] Sonication was performed 20 times each for durations of 10 s. After centrifugation at 7000× g for 15 min at 4 °C, the supernatant was separated from the pellet. The supernatant was diluted two-fold with 0.1 M phosphate buffer at pH 6.9. The test sample was dissolved in DMSO and then diluted in the same volume of 0.1 M phosphate buffer. The test sample solution (10 µL) was added to a crude enzyme suspension (40 µL). The solution was preincubated at 37 °C for 10 min, then 2.5 mM of pNPG dissolved in 0.1 M phosphate buffer (50 µL) was added to the reaction mixture as the substrate. The enzymatic reaction was carried out at 37 °C for 30 min and the reaction was terminated by the addition of 0.1 M Na2CO3 aq. (900 µL). The absorbance at 405 nm was determined. […] The acarbose was used as a positive control (Figure 4).

porcine pancreas lipase = biological target: T1, porcine pancreas lipase (Sus scrofa, UniProt P00591); experiment: pancreatic lipase inhibition, 4-methylumbelliferyl oleate, HPLC fluorescence detection of 4-MU; type: biochemical; details: for IC50: porcine pancreas lipase, 4-methylumbelliferyl oleate substrate, read-out: IC Lipase
T1 construct: from tissue; host or cells: porcine pancreas
T1 sequence (P00591 1-450): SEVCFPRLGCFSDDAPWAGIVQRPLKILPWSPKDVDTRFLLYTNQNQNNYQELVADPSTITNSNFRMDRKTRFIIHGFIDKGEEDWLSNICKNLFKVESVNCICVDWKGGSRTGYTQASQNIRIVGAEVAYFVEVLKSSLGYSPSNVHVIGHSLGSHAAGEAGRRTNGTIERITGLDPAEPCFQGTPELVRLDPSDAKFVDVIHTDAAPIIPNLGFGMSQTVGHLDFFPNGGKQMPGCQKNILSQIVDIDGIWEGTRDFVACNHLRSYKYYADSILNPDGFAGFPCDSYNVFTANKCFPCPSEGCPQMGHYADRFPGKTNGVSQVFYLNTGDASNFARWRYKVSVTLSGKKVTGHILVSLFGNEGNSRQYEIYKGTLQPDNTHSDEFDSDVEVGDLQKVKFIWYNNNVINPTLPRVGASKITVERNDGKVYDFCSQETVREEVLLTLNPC
Procedure: For pancreatic lipase inhibitory enzymatic assays, a slightly modified method from that described in a previous paper was used. […] The test sample solution (50 µL) was added to 50 unit/mL of porcine pancreas lipase suspension (50 µL). […] The enzymatic reaction was carried out at 37 °C for 120 min and the reaction was terminated by the addition of citrate buffer (200 µL). After that, the intensity of fluorescent enzymatic product 4-MU was measured by HPLC with fluorescence detection. […] The inhibition percentage was calculated using Equation (2):Inhibition% = [Area (test sample) − Area (sample blank)/Area (control)] × 100(2)
Tetrahydrolipstatin was used as a positive control (Figure 5 and Figure 6).

[3] = α-glucosidase from rat intestine acetone powder

| Compound | α-glucosidase inhibitory activity (in words) [2] | IC50 [2, 3] [µM] | IC50 (porcine pancreas lipase) [µM] | also measured |
| --- | --- | --- | --- | --- |
| CC1(C)CCC[C@]2(C)[C@@H](C=O)C(C=O)=CC[C@@H]12 [polygodial, reference compound] |  |  |  | human 5-lipoxygenase inhibition (in words) (human 5-lipoxygenase): inhibited human 5-lipoxygenase; α-glucosidase inhibition (in words) (α-glucosidase): did not show α-glucosidase inhibition |
| C=C1CCC2C(C)(C)CCC[C@]2(C)[C@H]1C/C=C(/C=O)CC=O (stereo partly drawn) [Compound 1, (E)-Labda-8(17),12-diene-15,16-dial] | strongest rat intestinal α-glucosidase inhibitory activity | 8740 |  | cytotoxicity against cancer cell lines (in words) [1]: strong cytotoxicity; cytotoxicity in Hep G2 cells (in words) (Hep G2 cells): without cytotoxicity; human 5-lipoxygenase inhibition (in words) (human 5-lipoxygenase): inhibited human 5-lipoxygenase; inhibition of COX2 compared with COX1 (in words) (COX2): greater inhibition of COX2 than COX1 |
| C[C@H]1O[C@H](O[C@H]2[C@H](O)[C@@H](O)[C@@H](O[C@H]3[C@H](O)[C@@H](O)C(O)O[C@@H]3CO)O[C@@H]2CO)[C@H](O)[C@@H](O)[C@@H]1N[C@H]1C=C(CO)[C@@H](O)[C@H](O)[C@H]1O (stereo partly drawn) [Acarbose, acarbose, reference compound] |  | 380 |  | IC50 α-glucosidase [2, 3]: 247 ppm |
| C=C1CCC2C(C)(C)CCCC2(C)C1C=CC(C)=O (stereo not drawn) [Compound 2] | strong α-glucosidase inhibition | 17500 | 14.8 | cytotoxicity against cancer cell lines (in words) [1]: did not show cytotoxicity |
| Albicanal [Compound 3] | did not show any such activity |  | 666 |  |
| C=C1CCC2C(C)(C)CCC[C@]2(C)[C@H]1C/C=C(\CC(=O)OC)C(=O)OC (stereo partly drawn) [Compound 10, (E)-Labda-8(17),12-diene-15,16-dimethylester] |  |  | 119 |  |
| C=C1CCC2C(C)(C)CCC[C@]2(C)[C@H]1C/C=C(\CCOC(C)=O)COC(C)=O (stereo partly drawn) [Compound 5, 15,16-Diacetoxyl-(E)-labda-8(17),12-diene] |  |  | 111 |  |
| C=C1CCC2C(C)(C)CCC[C@]2(C)[C@H]1C/C=C(/CO)CCOC(C)=O (stereo partly drawn) [Compound 6, 15-Acetoxy-(E)-labda-8(17),12-diene-16-ol] |  |  | 102 |  |
| C=C1CC[C@H]2C(C)(C)CCC[C@]2(C)[C@H]1CC=C(C=O)CC(=O)O (stereo in doubt) [Compound 8, Zerumin A] |  |  | 73.4 | cytotoxicity against cancer cell lines (in words) [1]: strong cytotoxicity |
| C=C1CCC2C(C)(C)CCC[C@]2(C)[C@H]1C/C=C(\CC(=O)O)C(=O)O (stereo partly drawn) [Compound 9, (E)-Labda-8(17),12-diene-15,16-dicarboxylic acid] |  |  | 76.8 |  |
| CCCCCCCCCCC[C@@H](C[C@@H]1OC(=O)[C@H]1CCCCCC)OC(=O)[C@H](CC(C)C)NC=O [Tetrahydrolipstatin, reference compound] |  |  |  | Lipase inhibition (porcine pancreas lipase; at 5.0 Nm, positive control): 94% (5.0 Nm) |
| C=C1CCC2C(C)(C)CCC[C@]2(C)[C@H]1C/C=C(/CO)CCO (stereo partly drawn) [Compound 4, (E)-Labda-8(17),12-diene-15,16-diol] | strong α-glucosidase inhibition | 11600 | 258 |  |
| C=C1CCC2C(C)(C)CCC[C@]2(C)[C@H]1C/C=C(\CCO)COC(C)=O (stereo partly drawn) [Compound 7, 16-Acetoxy-(E)-labda-8(17),12-diene-15-ol] |  |  | 222 |  |
